In brackets after ≈: the same amount, converted by molar mass. Several values for one entry are separate records, joined by “and”; a condition that tells them apart may be missing. Equal values may be shown once.
Legend:
Type in all cases: functional
Escherichia coli [1] = assay: Antimicrobial activity against Escherichia coli ATCC 25922 by agar dilution method
Escherichia coli [2] = assay: Antimicrobial activity against fluoroquinolone-resistant Escherichia coli clinical isolate by Etest
Escherichia coli [3] = assay: Antimicrobial activity against fluoroquinolone-resistant Escherichia coli clinical isolate by agar dilution method
Escherichia coli [4] = assay: Antimicrobial activity against fluoroquinolone-sensitive Escherichia coli clinical isolate by Etest

| Compound | MIC (Escherichia coli [1]) | MIC (Escherichia coli [2]) | MIC (Escherichia coli [3]) | MIC (Escherichia coli [4]) | MIC (Escherichia coli [4]; Escherichia coli, read-out: MIC) |
| --- | --- | --- | --- | --- | --- |
| COc1c(N2CCNC(C)C2)c(F)cc2c(=O)c(C(=O)O)cn(C3CC3)c12 (stereo unspecified) [GATIFLOXACIN] | 0.004 µg/mL (≈ 0.0107 µM) | 8 µg/mL (≈ 21.3 µM) | 23 µg/mL (≈ 61.3 µM) |  |  |
| C[C@H]1COc2c(N3CCN(C)CC3)c(F)cc3c(=O)c(C(=O)O)cn1c23.C[C@H]1COc2c(N3CCN(C)CC3)c(F)cc3c(=O)c(C(=O)O)cn1c23.O [LEVOFLOXACIN] |  | 8 µg/mL | 39 µg/mL | 0.023 µg/mL | 0.042 µg/mL |
| CCn1cc(C(=O)O)c(=O)c2cc(F)c(N3CCNCC3)cc21 [NORFLOXACIN] | 0.03 µg/mL (≈ 0.0939 µM) | 16 µg/mL (≈ 50.1 µM) | 232 µg/mL (≈ 727 µM) | 0.06 µg/mL and 0.02 µg/mL |  |
